{"source": "patent US20110184147A1", "about": "“ENZYME SUBSTRATE FOR LABELING OF PROTEIN” (priority 2008, published 2011)", "key": {"[1]": {"target": "T1, MTG (Streptomyces mobaraensis, UniProt P81453)", "T1 construct": "purchased AJINOMOTO (supplied as a gift)", "T1 sequence (P81453 77-407)": "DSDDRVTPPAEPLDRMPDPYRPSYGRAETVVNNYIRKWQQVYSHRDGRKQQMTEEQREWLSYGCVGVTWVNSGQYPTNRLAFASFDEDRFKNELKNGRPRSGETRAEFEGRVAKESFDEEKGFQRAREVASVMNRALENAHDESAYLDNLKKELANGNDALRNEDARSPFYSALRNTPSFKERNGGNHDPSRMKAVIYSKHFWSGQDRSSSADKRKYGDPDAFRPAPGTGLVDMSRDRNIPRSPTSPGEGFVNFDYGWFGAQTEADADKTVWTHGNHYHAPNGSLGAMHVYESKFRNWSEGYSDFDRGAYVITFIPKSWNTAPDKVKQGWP", "assay": "MTG-catalyzed introduction of fluorescent substrates into NK6-AP (SDS-PAGE, fluorescent imager)", "type": "biochemical, microbial", "conditions": "NK6-AP 0.5 mg/ml, MTG 1 U/ml; for Reactivity of MTG for fluorescent substrate (introduction into NK6-AP): substrate 1 mM, 10 mM Tris-HCl pH 8, overnight 4° C.", "method": "To perform a binding reaction, the fluorescent substrate (FITC-ε-Acp-QG, FITC-β-Ala-QG, Flc-QG, TR-β-Ala-QG or Dns-ε-Acp-QG), NK6-AP and MTG were added to 10 mM Tris-HCl (pH 8) to give respective final concentrations of 1 mM, 0.5 mg/ml and 1 U/ml and they were thoroughly agitated and the resulting solution was left to stand overnight at 4° C. For the purpose of comparison, an MTG-free sample was prepared.\nAfter the reaction, the samples were subjected to SDS-polyacrylamide gel electrophoresis (SDS-PAGE). The gel from SDS-PAGE was examined with a fluorescent imager before it was stained with Coomassie Brilliant Blue (CBB) in solution. For the sample containing Dns-ε-Acp-QG, examination was made with a transilluminator.\n(§1) A study was made using FITC-β-Ala-QG as a fluorescent substrate. The reaction conditions for introducing FITC-β-Ala-QG into NK6-AP were as follows: FITC-β-Ala-QG, NK6-AP and MTG were added to 10 mM Tris-HCl (pH 8) to give respective final concentrations of 0.1 mM, 0.5 mg/ml and 0.1 U/ml and they were thoroughly agitated at 4° C. for 0-5 hours. To trace the binding, the gel from SDS-PAGE was analyzed by a fluorescent imager.\nas §1, with “1-1000 μM,” for “0.1 mM,”, “15 minutes. Tracing on” for “0-5 hours. To trace”, “sample after” for “binding,”, “reaction” for “gel from SDS-PAGE”, “performed” for “analyzed”, “the same procedure as in Experiment 2-4.” for “a fluorescent imager.”\nDns-β-Ala-QG-biotin, NK6-AP and MTG were added to 20 mM Tris-HCl (pH 8) to give respective final concentrations of 100 μM, 0.5 mg/ml, and 1 U/ml. For the purpose of comparison, an MTG-free sample was prepared. The ingredients were thoroughly agitated and the resulting solution was left to stand overnight at 4° C. for reaction.\nAfter the reaction, the samples were subjected to SDS-polyacrylamide gel electrophoresis (SDS-PAGE). The gel from SDS-PAGE was examined with a transilluminator before it was stained with Coomassie Brilliant Blue (CBB) in solution.\nTo a 50 mM buffer whose pH was varied over the range of from 5 to 9, FITC-β-Ala-QG, NK6-AP and MTG were added to give respective final concentrations of 0.1 mM, 0.5 mg/ml, and 0.1 U/ml. These ingredients were well stirred and left to stand at 4° C. for reaction. After 6-hr or 15-minute reaction, the sample was mixed with a sample buffer and heated at 95° C. for 15 minutes to stop the reaction. Thereafter, SDS-polyacrylamide gel electrophoresis (SDS-PAGE) was applied. The gel from SDS-PAGE was stained with Coomassie Brilliant Blue (CBB) and observed with a fluorescent imager.\n(§2) To 50 mM Tris-HCl (pH 8), FITC-β-Ala-QG, NK6-AP and MTG were added to give respective final concentrations of 0.1 mM, 0.5 mg/ml, and 0.001-1 U/ml. These ingredients were well stirred and left to stand at 4° C. for reaction. The reaction was stopped and evaluation was made by the same procedures as in Experiment 2-2.\nas §2, with “FITC-β-Ala-QG-alkyne,” for “FITC-β-Ala-QG,”, “0.1” for “0.001-1”, “For the purpose of comparison, a MTG-free sample was also prepared. Both samples” for “These ingredients”"}, "[2]": {"target": "T1, MTG", "assay": "MTG-catalyzed introduction of fluorescent substrates into anti-lysozyme IgG2a antibody", "type": "biochemical, microbial", "conditions": "substrate 1 mM, mouse anti-lysozyme IgG2a 0.5 mg/ml, MTG 1 U/ml, pH 7, overnight 4° C.; reduced SDS-PAGE", "method": "A fluorescent substrate (FITC-ε-Acp-QG, FITC-β-Ala-QG, TR-β-Ala-QG or […]), mouse-derived anti-lysozyme IgG2a antibody (monoclonal) and MTG were added to a 10 mM phosphate buffer (pH 7) to give respective final concentrations of 1 mM, 0.5 mg/ml and 1 U/ml. For the purpose of comparison, an MTG-free sample was prepared. The ingredients were thoroughly agitated and the resulting solution was left to stand overnight at 4° C.\nAfter the reaction, the samples were subjected to SDS-PAGE. The gel from SDS-PAGE was examined with a fluorescent imager before it was stained with a CBB dye solution. For the Dns-ε-Acp-QG containing sample, examination was made with a transilluminator."}, "[3]": {"target": "T1, MTG", "assay": "MTG-catalyzed introduction of fluorescent substrates into NK6-AP (SDS-PAGE, fluorescent imager)", "type": "biochemical, microbial", "conditions": "substrate 1 mM, NK6-AP 0.5 mg/ml, MTG 1 U/ml, 10 mM Tris-HCl pH 8, overnight 4° C.; listed as Dns-β-Acp-QG"}, "[4]": {"target": "T2, NK6-AP (Escherichia coli, UniProt P00634)", "T2 construct": "NK6-AP; MKHKGSTPEMP-ALGLKLEHHHHHH; made in house", "T2 sequence (P00634 22-471)": "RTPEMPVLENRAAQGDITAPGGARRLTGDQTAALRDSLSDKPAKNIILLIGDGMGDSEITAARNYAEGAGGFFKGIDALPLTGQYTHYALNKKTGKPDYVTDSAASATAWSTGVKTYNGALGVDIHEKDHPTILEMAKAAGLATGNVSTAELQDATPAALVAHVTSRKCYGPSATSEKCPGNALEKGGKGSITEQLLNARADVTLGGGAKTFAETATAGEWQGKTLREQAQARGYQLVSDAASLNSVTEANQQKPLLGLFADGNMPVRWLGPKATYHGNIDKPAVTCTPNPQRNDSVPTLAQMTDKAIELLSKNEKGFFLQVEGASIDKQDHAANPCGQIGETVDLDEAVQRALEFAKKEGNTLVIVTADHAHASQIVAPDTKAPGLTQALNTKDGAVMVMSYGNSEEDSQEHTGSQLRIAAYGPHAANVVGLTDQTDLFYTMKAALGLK", "assay": "Effect of modification on the enzymatic activity of NK6-AP (p-NPP)", "type": "biochemical", "conditions": "AP 28 nM, p-NPP 1 mM, pH 8.0, 27° C., with vs without MTG", "method": "The effect of introduction on the enzymatic activity was studied. In the study, p-nitrophenylphosphoric acid (p-NPP) was used as a substrate and the activities of the samples prepared in Experiment 2-2 were measured; AP would catalyze the dephosphorylation of p-NPP to form p-nitrophenol (p-NP). The reaction conditions for activity measurement were AP 28 nM, p-NPP 1 mM and pH 8.0 and at a controlled temperature of 27° C., the p-NP derived absorption at 410 nm was traced.\n(§3) The activities of the samples prepared in Experiment 2-2 were measured, with p-nitrophenylphosphoric acid (p-NPP) being used as a substrate; AP would catalyze the dephosphorylation of p-NPP to form p-nitrophenol (p-NP). The reaction conditions for activity measurement were AP 28 nM, p-NPP 1 mM and pH 8.0 and at a controlled temperature of 27° C., the p-NP derived absorption at 410 nm was traced.\nas §3, with “With” for “The activities of the samples prepared in Experiment 2-2 were measured, with”, “substrate, the sampled prepared in Experiment 2-4 were measured;” for “substrate;”, “(p-NP) (see below).” for “(p-NP).”"}, "[5]": {"target": "T2, NK6-AP", "assay": "Degree of labeling of dual labeled protein (absorbance at 280 nm and 330 nm)", "conditions": "after His-tag purification", "method": "By His-tag purification on a Ni-NTA column, the dual labeled protein was separated from an excess of Dns-β-Ala-QG-biotin. An excess of the imidazole used in the elution step was removed by gel filtration purification on a PD-10 column with 20 mM Tris-HCl (pH 8) being used as an elution buffer.\nThe resulting dual labeled protein was concentrated with a suction-type centrifugal evaporator and an attempt was made to calculate the degree of its labeling by measuring the absorbance at 280 nm and 330 nm."}, "[6]": {"conditions": "fluorescein in FITC-β-Ala-QG; cited from earlier work"}, "[7]": {"target": "avidin (Gallus gallus, UniProt P02701)", "sequence (P02701 25-152, species assumed)": "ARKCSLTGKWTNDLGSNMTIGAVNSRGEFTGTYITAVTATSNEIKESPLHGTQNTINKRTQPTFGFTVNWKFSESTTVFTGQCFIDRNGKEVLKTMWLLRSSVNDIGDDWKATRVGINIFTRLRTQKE", "conditions": "cited from earlier work"}, "[8]": {"system": "BSA (antigen)", "assay": "Antigen recognizing ability by ELISA (rabbit-derived anti-BSA IgG antibody)", "type": "binding", "conditions": "rabbit-derived anti-BSA IgG antibody (polyclonal) modified by MTG", "method": "A study was made on samples that were prepared by introducing a fluorescent substrate (FITC-ε-Acp-QG or FITC-β-Ala-QG) into a rabbit-derived anti-BSA IgG antibody (polyclonal) under the same conditions as in Experiment 2-2.\nELISA was performed by the following procedure (FIG. 3-5). • 1) To a Black Plate, 5 mg/ml of BSA (antigen) was added in an amount of 150 µl/well and left to stand overnight at 37° C. • 2) The product of 1) was washed with PBST five times. • 3) Modified anti-BSA IgG antibodies were added in an amount of 60 µl/well and left to stand at room temperature for 5 hours. • 4) The product of 3) was washed with PBST five times. • 5) Examination was made with a fluorescent imager. • 6) A […] sample of AP-labeled anti-rabbit IgG IgG antibodies were added in an amount of 150 µl/well and left to stand at 37° C. for 3 hours. • 7) The product of 6) was washed with TBST five times. • 8) The substrate was added and 10 minutes later, fluorescence derived from the enzymatic reaction was examined with a fluorescent imager."}, "[9]": {"system": "avidin", "assay": "Immobilizing the dual labeled protein on avidin-coated microplate", "type": "binding", "conditions": "1.5 μM, 37° C., 1 h; dansyl fluorescence and AP activity (ECF)", "method": "2-6. Immobilizing the Dual Labeled Protein on Microplate • 1) After His-tag purification, the dual labeled protein (1.5 μM) was dissolved in 20 mM Tris-HCl (pH 8) and added onto an avidin-coated microplate (product of Nunc) in an amount of 100 μl/well so that it would be immobilized by the interaction between biotin and avidin (37° C., 1 h). • 2) To observe the fluorescence derived from dansyl groups, 20 mM Tris-HCl (pH 8) was added in an amount of 100 μl/well and immobilization was verified by a fluorescent imager. • 3) A solution of ECF as a fluorescent substrate of AP was diluted 100 folds with 1 M Tris-HCl (pH 8) and added onto the plate in an amount of 100 μl/well for reaction with the immobilized AP (25° C., 5 min). (Before steps 2) and 3), a microplate washer was used to wash the plate with TBST (TBS+[…] Tween 20) three times each in an amount of 300 μl/well.)"}}, "note": "“Also recorded” adds a separate entry of the source. Square brackets hold non-standard residues; d marks the D form. Peptide text beside a SMILES is read from it. * marks the point of attachment. ξ: configuration not given here. Dansyl = CN(C)c1cccc2c(S(=O)(=O)*)cccc12; ξQ = NC(=O)CCC(N)C(=O)O; Ahx = NCCCCCC(=O)O", "data": [{"molecule": "CN(C)c1cccc2c(S(=O)(=O)NCCCCCC(=O)NC(CCC(N)=O)C(=O)NCC(=O)O)cccc12", "note": "(stereo not shown) [Dns-ε-Acp-QG] ({Dansyl-Ahx}-[ξQ]-Gly-OH)", "values": [{"measurement": "Reactivity of MTG for fluorescent substrate (introduction into NK6-AP)", "setting": "[1]", "value": "recognizable as a substrate of MTG"}, {"measurement": "Reactivity of antibody with fluorescent substrate by MTG catalysis", "setting": "[2]", "value": "H chains of the antibody are modified; also recorded: site-specific modification of the H chains in the antibody"}, {"measurement": "Reactivity of MTG for fluorescent substrate (introduction into NK6-AP)", "setting": "[3]", "value": "served as substrates of MTG"}]}, {"molecule": "CN(C)c1cccc2c(S(=O)(=O)NCCC(=O)NC(CCC(N)=O)C(=O)NCC(=O)NCCOCCOCCNC(=O)CCCC[C@@H]3SC[C@@H]4NC(=O)N[C@@H]43)cccc12", "note": "(stereo partly drawn) [Dns-β-Ala-QG-biotin]", "values": [{"measurement": "Reactivity of MTG for dual labeled substrate (introduction into NK6-AP)", "setting": "[1]; substrate 100 μM, 20 mM Tris-HCl pH 8, overnight 4° C.", "value": "had been introduced into NK6-AP; also recorded: confirmed the MTG-catalyzed introduction"}, {"measurement": "Relative activity of NK6-AP after MTG-catalyzed introduction", "setting": "[4]", "value": "hardly any difference in the activity of AP; also recorded: in no way affected by the introduction"}, {"measurement": "Degree of labeling (moles of dansyl groups / moles of NK6-AP)", "setting": "[5]", "value": 1.1}]}, {"molecule": "fluorescein isothiocyanate [FITC]", "values": [{"measurement": "pKa", "setting": "[6]", "value": 6.4}]}, {"molecule": "O=C(O)CCCC[C@@H]1SC[C@@H]2NC(=O)N[C@@H]21", "note": "[biotin]", "values": [{"measurement": "Ka", "setting": "[7]", "value": "10^15 M"}]}, {"molecule": "NC(=O)CCC(NC(=O)c1ccc(-c2c3ccc(=O)cc-3oc3cc(O)ccc23)c(C(=O)O)c1)C(=O)NCC(=O)O", "note": "(stereo not shown) [Flc-QG]", "values": [{"measurement": "Reactivity of MTG for fluorescent substrate (introduction into NK6-AP)", "setting": "[1]", "value": "not recognizable by MTG; also recorded: not recognized as a substrate"}]}, {"molecule": "NC(=O)CCC(NC(=O)CCCCCNC(=S)Nc1ccc(-c2c3ccc(=O)cc-3oc3cc(O)ccc23)c(C(=O)O)c1)C(=O)NCC(=O)O", "note": "(stereo not shown) [FITC-ε-Acp-QG]", "values": [{"measurement": "Reactivity of MTG for fluorescent substrate (introduction into NK6-AP)", "setting": "[1]", "value": "served as substrates of MTG; also recorded: recognizable as a substrate of MTG"}, {"measurement": "Reactivity of antibody with fluorescent substrate by MTG catalysis", "setting": "[2]", "value": "H chains of the antibody are modified; also recorded: site-specific modification of the H chains in the antibody"}, {"measurement": "Antigen recognizing ability of modified antibody", "setting": "[8]", "value": "maintained its antigen recognizing ability"}]}, {"molecule": "dual labeled protein: NK6-AP into which Dns-β-Ala-QG-biotin was introduced by MTG catalysis (conjugate) MKHKGSTPEMPVLENRAAQGDITAPGGARRLTGDQTAALRDSLSDKPAKNIILLIGDGMGDSEITAARNYAEGAGGFFKGIDALPLTGQYTHYALNKKTGKPDYVTDSAASATAWSTGVKTYNGALGVDIHEKDHPTILEMAKAAGLATGNVSTAELQDATPAALVAHVTSRKCYGPSATSEKCPGNALEKGGKGSITEQLLNARADVTLGGGAKTFAETATAGEWQGKTLREQAQARGYQLVSDAASLNSVTEANQQKPLLGLFADGNMPVRWLGPKATYHGNIDKPAVTCTPNPQRNDSVPTLAQMTDKAIELLSKNEKGFFLQVEGASIDKQDHAANPCGQIGETVDLDEAVQRALEFAKKEGNTLVIVTADHAHASQIVAPDTKAPGLTQALNTKDGAVMVMSYGNSEEDSQEHTGSQLRIAAYGPHAANVVGLTDQTDLFYTMKAALGLKLEHHHHHH", "values": [{"measurement": "Immobilization on avidin-coated microplate", "setting": "[9]", "value": "immobilized on the microplate while retaining its function"}]}]}
